Reference: US8288396B2, “Pyrimidopyrimidoindazole derivative” (MSDKK, priority 2009, dated 2012)

How the values were obtained:
Wee1 kinase = biological target: T1, Wee1 kinase (Homo sapiens, UniProt P30291); assay: Wee1 kinase inhibitory effect (Pharmacological Test 1); assay type: biochemical; details: GST-tagged Wee1 kinase, Poly(Lys, Tyr) substrate, 10 μM ATP, 30° C. for 30 minutes
T1 construct: made in house; host or cells: Sf9 insect cells (recombinant baculovirus)
Source text: Pharmacological Test 1 (Wee1 Kinase Inhibitory Effect)
(1) Purification of Wee1 Kinase
A cDNA of Wee1 kinase with […] (GST) fused at the amino terminal thereof was inserted into a baculovirus expression vector to construct a recombinant baculovirus, with which cells of an insect cell line Sf9 were infected to overexpress the target protein. The infected cells were collected and lysed, and then the GST-tagged Wee1 kinase protein was adsorbed to a glutathione column and eluted from the column with glutathione, and the active fraction was desalted in a desalting column to give a purified enzyme.
(2) Measurement of Wee1 Kinase Activity
In measurement of the Wee1 kinase activity, a synthetic peptide, Poly(Lys, Tyr) hydrobromide (Lys:Tyr (4:1)) purchased from Sigma was used as the substrate.
The amount of the reaction mixture was 21.1 μL; and the composition of the reaction buffer was 50 mM Tris-HCl buffer (pH 7.4)/10 mM magnesium chloride/1 mM dithiothreitol. The purified Wee1 kinase, 2.5 μg of the substrate peptide, 10 μM of non-labeled adenosine triphosphate (ATP) and 1 μCi of [γ-^33P]-labeled ATP (2500 Ci/mmol or more) were added to the reaction buffer, and the resulting mixture was incubated at 30° C. for 30 minutes. Thereafter, 10 μL of 350 mM phosphate buffer was added to the reaction system to stop the reaction. The substrate peptide was adsorbed on a P81 paper filter 96-well plate and the plate was washed several times with 130 mM phosphate buffer, and the radioactivity thereof was counted using a liquid scintillation counter. The [γ-^33P]-labeled ATP was purchased from Amersham Bioscience, Ltd.
The addition of a test compound to the reaction system was carried out by preparing a series of dilutions of the compound with dimethyl sulfoxide (DMSO) and adding 1.1 μL of each dilution to the reaction system. As a control, 1.1 μL of DMSO was added to the reaction system.

[1] = tested on: Cdc2 (Cdk1) tyrosine-15 phosphorylation; assay: Inhibitory effect on Cdc2 (Cdk1) tyrosine-15 phosphorylation in NCI-H1299 cells (Pharmacological Test 2); assay type: cell-based; details: Homo sapiens, camptothecin 200 nM 16 hours, then test compound with nocodazole 8 hours, ELISA, read-out: Cdc2-Y15 Phosphorylation-Inhibitory Effect (H1299, +camptothecin) (EC50)
Source text: Pharmacological Test 2 (Method for Determining Drug Effect Using Cells (Inhibitory Effect on Cdc2 (Cdk1) Tyrosine-15 Phosphorylation))
Fetal bovine serum (FBS) was purchased from Morgate, Inc.; an RPMI-1640 medium and a DMEM medium were purchased from Invitrogen, Inc.; camptothecin was purchased from Sigma Co.; gemcitabine was purchased from Eli Lilly Japan K.K.; nocodazole and protease inhibitor cocktail were purchased from Sigma Co.; a rabbit anti-Cdc2 antibody and a mouse anti-Cdc2 antibody were purchased from Santa Cruz Biotechnology, Inc.; a rabbit anti-tyrosine-15-phosphorylated Cdc2 antibody and a horseradish peroxidase-labeled anti-mouse IgG antibody were purchased from Cell Signaling Technology, Inc.; and Sure Blue Reserve TMB peroxidase substrate was purchased from Kirkegaard & Perry Laboratories, Inc.
A human non-small cell lung cancer cell line (NCI-H1299) and a human colon cancer cell line (WiDr) can be obtained from American Type Culture Collection (ATCC).
In the method using NCI-H1299 cells, the cells were suspended in an RPMI-1640 medium supplemented with 10% FBS, and 100 μL of the resulting cell suspension was dispensed in a Nunclon Delta treated 96-well plastic plate purchased from Nunc, Inc. at a density of 2000 cells per well, and the plate was incubated overnight at 37° C. under an atmosphere of 5% CO2 and 95% air. Camptothecin was dissolved in dimethyl sulfoxide (DMSO) and further the resulting solution was diluted with an RPMI-1640 medium supplemented with 10% FBS. Then, 50 μL of the diluted solution was added to each well of the plate in which the cells were seeded in advance such that the final concentration of camptothecin was 200 nM, and the plate was incubated at 37° C. under an atmosphere of 5% CO2 and 95% air for 16 hours. A test compound was serially diluted with DMSO, and further diluted with an RPMI-1640 medium supplemented with 10% FBS containing 4000 nM nocodazole. Then, 50 μL of the test compound solution was added to each well of the plate in which the cells treated with camptothecin were seeded, and the plate was incubated at 37° C. under an atmosphere of 5% CO2 and 95% air for 8 hours. Then, the culture medium was removed from each well and 100 μL of a cell lysis buffer was added to each well, and the plate was shaken at 4° C. for 2 hours, and thereafter the liquid in the plate was frozen at −80° C. and then thawed, which was used as a lysed cell solution. Cdc2 and tyrosine-15-phosphorylated Cdc2 in this lysed cell solution were measured by an enzyme-linked immunosorbent assay (ELISA method), and a ratio of tyrosine-15-phosphorylated Cdc2 to Cdc2 was calculated to determine a 50% effective concentration (EC50, nM) of the test compound for inhibition of phosphorylation in cells. The cell lysis buffer as used herein is an aqueous solution containing 20 mM HEPES (pH 7.5), 150 mM sodium chloride, 1 mM disodium ethylenediamine tetraacetate, 0.1% polyoxyethylene (10) octylphenyl ether, 1% protease inhibitor cocktail, 1 mM dithiothreitol, 2 mM sodium orthovanadate, 10 mM sodium fluoride and 10 mM glycerol diphosphate. The measurement of Cdc2 by the ELISA method was carried out as follows. 50 μL of a solution of a rabbit anti-Cdc2 antibody obtained by diluting the antibody to 200 times with 50 mM carbonate-bicarbonate buffer (pH 9.6) was dispensed into each well of a 96-well Maxisorb immunoplate purchased from Nunc, Inc., and the immunoplate was let stand overnight at 4° C. to immobilize the antibody thereto. Subsequently, each well was washed three times with phosphate buffered saline (PBS), and 300 μL of PBS containing 5% bovine serum albumin (5% BSA/PBS) was added to each well, and then, the immunoplate was let stand at room temperature for 2 hours. […]

T1 sequence (P30291 whole entry): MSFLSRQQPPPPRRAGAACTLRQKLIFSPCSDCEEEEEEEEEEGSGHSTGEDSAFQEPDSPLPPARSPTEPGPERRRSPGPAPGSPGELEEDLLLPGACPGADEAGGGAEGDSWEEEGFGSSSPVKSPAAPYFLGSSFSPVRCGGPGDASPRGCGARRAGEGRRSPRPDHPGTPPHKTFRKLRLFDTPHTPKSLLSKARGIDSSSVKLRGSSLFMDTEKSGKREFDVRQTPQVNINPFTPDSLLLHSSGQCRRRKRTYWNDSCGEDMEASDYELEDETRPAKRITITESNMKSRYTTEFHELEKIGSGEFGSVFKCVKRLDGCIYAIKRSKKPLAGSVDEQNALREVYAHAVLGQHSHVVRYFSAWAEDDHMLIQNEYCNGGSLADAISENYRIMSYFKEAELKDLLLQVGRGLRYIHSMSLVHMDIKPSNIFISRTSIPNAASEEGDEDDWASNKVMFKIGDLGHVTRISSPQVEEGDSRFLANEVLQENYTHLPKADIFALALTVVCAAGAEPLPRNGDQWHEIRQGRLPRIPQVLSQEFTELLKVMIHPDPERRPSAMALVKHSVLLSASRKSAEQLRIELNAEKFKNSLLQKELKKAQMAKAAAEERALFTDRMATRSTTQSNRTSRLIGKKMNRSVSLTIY

Structure (SMILES)	IC50 (Wee1 kinase)	EC50 [1]
CN1CCc2cc(Nc3ncc4c(=O)n5c(nc4n3)c3ccccc3n5-c3nccs3)ccc2C1 [Example 136, 2-[(2-methyl-1,2,3,4-tetrahydroisoquinolin-6-yl)amino]-7-(1,3-thiazol-2-yl)pyrimido[4′,5′:4,5]pyrimido[1,2-b]indazol-5(7H)-one]	0.0053 µM	0.011 µM
CN1CCc2cc(Nc3ncc4c(=O)n5c(nc4n3)c3ccccc3n5-c3ncccn3)ccc2C1(C)C [Example 103, 7-(pyrimidin-2-yl)-2-[(1,1,2-trimethyl-1,2,3,4-tetrahydroisoquinolin-6-yl)amino]pyrimido[4′,5′:4,5]pyrimido[1,2-b]indazol-5(7H)-one]	0.0068 µM	0.031 µM
CN1CCc2ccc(Nc3ncc4c(=O)n5c(nc4n3)c3ccccc3n5-c3ccccn3)cc2C1 [Example 44, 2-[(2-methyl-1,2,3,4-tetrahydroisoquinolin-7-yl)amino]-7-(pyridin-2-yl)pyrimido[4′,5′:4,5]pyrimido[1,2-b]indazol-5(7H)-one]	0.0039 µM	0.038 µM
Cc1cc(Nc2ncc3c(=O)n4c(nc3n2)c2ccccc2n4-c2ccccn2)ccc1N1CCN(C)CC1 [Example 21, 2-{[3-methyl-4-(4-methylpiperazin-1-yl)phenyl]amino}-7-(pyridin-2-yl)pyrimido[4′,5′:4,5]pyrimido[1,2-b]indazol-5(7H)-one]	0.032 µM	0.111 µM
CN1CCc2cc(Nc3ncc4c(=O)n5c(nc4n3)c3ccccc3n5-c3ccccn3)ccc2C1 [Example 43, 2-[(2-methyl-1,2,3,4-tetrahydroisoquinolin-6-yl)amino]-7-(pyridin-2-yl)pyrimido[4′,5′:4,5]pyrimido[1,2-b]indazol-5(7H)-one]	0.0049 µM	0.031 µM
